Series [1] has as its system kaolin edema of the hind paws of the rat. Briefly: anti-exudative effect on the kaolin edema of the hind paws of the rat. It is filed as in vivo, rat (male FW 49). Conditions: per os 30 minutes before inducement of edema, swelling at 5 hours, dose leading to 35% reduction of the swelling, graphic extrapolation. Here is the method:
(§1) The compounds were tested for their anti-exudative effects on the kaolin edema and carrageenin edema of the hind paws of the rat, for their ulcerogenicity and for their acute toxicity by oral administration to rats.
(§2) The kaolin edema was induced according to the method of Hillebrecht [Arzneimittel-Forsch. 4, 607 (1954) ] by subplantary injection of 0.05 ml of a 10% suspension of kaolin in a 0.85% sodium chloride solution. The measurement of the thickness of the paws was done by using the technique of Doepfner and Cerletti (Int. Arch. Allergy, Immunol. 12, 89 (1958)).
(§3) Male FW 49-rats of an average weight of 120-150 gm were orally treated with the test compounds 30 minutes before inducement of the edema with the aid of a esophageal tube. Five hours after the provocation of the edema the averaged values of the swelling caused in the paws of the rats treated with the test compounds were compared with those values measured on blind-treated control animals. By graphic extrapolation the dose leading to a 35% reduction of the swelling (ED35) was calculated from the percent reduction values measured by administration of different doses.

The subject of series [2] is kaolin and carrageenin edema of the hind paws of the rat. Briefly: average anti-exudative (antiphlogistic) activity against kaolin and carrageenin edema. The series is classed as in vivo, rat (male FW 49). The following applies: per os, for C only from carrageenin edema. Here is the method:
The compounds of the present invention were tested for antiphlogistic activity, ulcerogenic activity and acute toxicity in the manner described below, and representative results of these tests are shown in the tables, where
as §1, §2, §3
(§4) The provocation of the carrageenin edema was effected according to the method of Winter et al. [Proc. Soc. exp. Biol. Med. 111, 544 (1962) ] by subplantary injection of 0.05 ml of a 1% solution of carrageenin in a 0.85% solution of sodium chloride. The test compounds were orally administered 60 minutes before the provocation of the edema.
(§5) For the calculation of the reductive effect on the edema, the values measured three hours after the provocation of the edema were used. All the other details were the same as described above in the case of the kaolin edema.
(§6) The therapeutic indices, as a measure for the therapeutic usefulness, were calculated by forming the quotient of the ED50 -value for the ulcerogenicity or of th LD50 -value and the ED35 -value derived from the tests for anti-exudative activity against the kaolin and carrageenin edema.
For orientation: The carrageenan paw model is a standard test of acute inflammation.

Series [3] is described as follows: in vivo. Conditions: po; for selectivity ratio: quotient of ulcerogenic ED50 and average antiexudative ED35, rat, per os, read-out: Therapeutic index: Ratio of ulcerogenic activity to antiexudative activity ED50/ED35; for TD50: rat. Here is the method:
as §1
The tests for ulcerogenic activity were effected on FW 49-rats of both sexes (ratio 1:1) having a body weight of 130 to 150 gm. The animals were given the substances on three subsequent days, once each day, as a trituration in tylose by way of an esophageal tube.
The animals were killed four hours after the last administration; the stomach and duodenal mucosa were investigated for ulcers.
From the percentage of animals showing at least one ulcer after administration of different doses, the ED50 -value was calculated according to the method of Litchfield and Wilcoxon [J. Pharmacol. exp. Therap. 96, 99 (1949) ].
as §6

Series [4] can be described thus: acute toxicity by oral administration to rats. The following applies: in vivo, po; for selectivity ratio: quotient of LD50 and average anti-exudative ED35, rat, per os, read-out: Therapeutic ratio LD50/aver.ED35; for LD50 at 336 h: rat, per os as trituration in tylose, deaths within 14 days, Litchfield and Wilcoxon. It is filed as in vivo. Here is the method:
as §1
(§7) After oral administration to male and female FW 49-rats (ratio 1:1) having an average body weight of 135 gm, the acute toxicity (LD50) was determined. The substances were administered orally as a trituration in tylose.
(§8) The calculation of the LD50 -values was effected, as far as possible, according to the method of Litchfield and Wilcoxon, based on the percentage of animals which died within 14 days after administration of the different doses.
as §6

Series [5] deals with carrageenin edema of the hind paws of the rat. Briefly: anti-exudative effect on the carrageenin edema of the hind paws of the rat. The series is classed as in vivo, rat (male FW 49). Conditions: per os 60 minutes before provocation of edema, measured 3 hours after, dose leading to 35% reduction of the swelling. Here is the method:
as §1, §4, §5

Series [6] has as its system rat. Briefly: acute toxicity by oral administration to rats. It is filed as in vivo. The following applies: rat, per os, at 1600 mgm/kg, within 14 days. Here is the method:
as §1, §7, §8, §6

Where [7] appears, read: Table I, average of kaolin and carrageenin edema, read-out: Average anti-exudative ED35 per os.
Where [8] appears, read: Table II, read-out: Average antiexudative ED35.

Structures are written as SMILES. Where two headings read alike, the source gives them in different places.

In the case of `CC(CCO)c1ccc(-c2ccccc2)c(F)c1` (stereo not drawn) [A, 3-(2-fluoro-4-biphenylyl)-1-butanol], the ED35 in series [1] is 17 mg/kg; in series [2] (setting [7]), 12.8 mg/kg; in series [2] (setting [8]) it was 12.8 mg/kg; in series [5], 8.5 mg/kg. Also, the figures for the selectivity ratio in series [3] and in series [4] were 2.39 and 64.7, respectively. Moreover, the TD50 in series [3] is 30.5 mg/kg. Also, the LD50 (commonly the dose at which mortality reaches 50%) at 336 h in series [4] was determined as 825 mg/kg.

As to `CC(CCOC(=O)c1ccncc1)c1ccc(-c2ccccc2)c(F)c1.Cl` (stereo not drawn) [B, 3-(2-fluoro-4-biphenylyl)-1-butyl isonicotinate hydrochloride], the ED35 in series [1] was 20 mg/kg; in series [2] (setting [7]), 16.5 mg/kg; in series [2] (setting [8]) it was 16.5 mg/kg; in series [5] it was 13 mg/kg. The selectivity ratio in series [3] was determined as 3.7; in series [4], 92.7. Besides, the TD50 in series [3] stood at 61 mg/kg. For the same compound, the LD50 at 336 h in series [4] was found to be 1530 mg/kg.

For the compound `CC(CCO)c1ccc(-c2ccccc2)c(Cl)c1` (stereo not drawn) [C, 3-(2-chloro-4-biphenylyl)-1-butanol], the ED35 in series [2] (setting [7]), in series [2] (setting [8]) and in series [5] was 17 mg/kg in each case. Further, the selectivity ratio in series [3] is 2.15; in series [4], above 94.1. The same compound yielded a TD50 in series [3] of 36.6 mg/kg. The same compound showed an LD50 at 336 h in series [4] above 1600 mg/kg. The animals died in series [6] is listed as 1 out of 10.

These data come from US3969419A, “3-(2-Halo-4-biphenylyl)-1-butanols and derivatives thereof” (Boehringer Ingelheim GmbH, priority 1973, dated 1976).
